From patent US5488110A, “Highly water soluble bis-naphthalimides useful as anticancer agents” (The Du Pont Merck Pharmaceutical Company, priority 1994, dated 1996)
≈ marks a conversion by molar mass, not a printed value. Entries after “also recorded” stand apart in the source; their conditions may differ.

Experiments:
DLD-2 human colon tumor = assay: In Vivo Human Tumor Xenograft Model, DLD-2; parameters: species or system human (xenografted in nude mice); conditions: nude mice, i.v. once daily for nine consecutive days; NCI criteria
From the text: (§1) The DLD-2 human colon tumor, MX-1 human mammary carcinoma, and LX-1 human lung tumor were originally obtained from a surgically removed primary colon carcinoma, breast tumor, and non-small lung carcinoma, respectively. The human tumor lines were maintained by serial passage in athymic nude mice. The MX-1 human mammary carcinoma and LX-1 human lung tumor are established tumors used by the NCI. The DLD-2, MX-1, and LX-1 tumor models have been well characterized.
The mice used in these experiments were outbred Swiss mice or BALB/c mice bearing the nude (nu/nu) gene. On day 0 male and female mice weighing 22-30 g are inoculated with 0.2 mL of a 25% tumor mince. This mince is prepared by mincing fresh tumor tissue, grown subcutaneously in passage mice, in sterile physiological saline. Palpable tumors weighing approximately 50 mg appear in the mice within 7-10 days after inoculation. The mice are pair matched by tumor weight and sex into groups of ten each and the test compounds and vehicle control are administered intravenously (i.v.) once daily for nine consecutive days. A >20% decrease in body weight on day 5 following compound administration is considered an indication of toxicity. Tumor measurements and body weights are recorded once a week. Fifteen to 18 days after the initial injection the mice are weighed, sacrificed and the tumors excised and weighed.
(§2) The efficacy of the test compounds is determined by the extent of tumor growth inhibition in treated versus vehicle-treated control mice. Initial tumor weights (mg) are calculated from the tumor dimensions (mm) measured from caliper measurements, using the formula for a prolate ellipsoid (mg of tumor weight=(length×width^2)/2). Net tumor weights are calculated for each of the treated groups and the vehicle-treated control group by subtracting the initial tumor weight from the final tumor weight on day 15. Results are expressed as a percentage decrease relative to the mean tumor weight for the control vehicle-treated group. [formula] Activity Criteria […]

[1] = tested on: murine leukemia L1210 cells; assay: In vitro Growth Inhibitory Activity (MTT, 3 days); format: cell-based; conditions: Mus musculus, 72 h, 3 days at 37° C., read-out: ID50 (the source's name)
Experimental: L1210 cells were maintained in RPMI=1640 a medium supplemented with 10% heat inactivated fetal bovine serum and […] (RPMI-L). B16 cells were maintained in RPMI-1640 medium supplemented with 15% heat inactivated fetal bovine serum and antiobiotics (RPMI-C).
Exponential growing murine leukemia L1210 cells (1×10^3 cells) in 0.1 mL medium were seeded on day 0 in a 96-well microtiter plate. On day 1, 0.1 mL aliquot of medium containing graded concentrations of test analogs was added to the initial volume. After incubation at 37° C. in a humidified incubator for 3 days, the plates were centrifuged briefly and 0.1 mL of the growth medium was removed. Cell cultures were incubated with 50 μL of 3-(4,5-dimethylthiazol-2-yl)-2,5- diphenyltetrazolium bromide (MTT; 1 mg/ml in Dulbecco's phosphate buffer saline) for 4 hours at 37° C. The resulting purple formazan precipitate was solubilized with 0.2 mL of 0.04N HCl in isopropyl alcohol. Absorbance was read in a Titertek Multiskan MCC scaning well spectrophotometer (Flow Laboratories) at a test wavelength of 570 nm and a reference wavelength of 630 nm.
The ID50 values were determined by a computer program that fit all of the data (8 determinations per concentration and 12 concentrations per test analog) to the following equation:
Y=((Am-Ao)/(1+(X/ID50)n))+Ao
where: Am=absorbance of the control cells; Ao=absorbance of the cells in the presence of highest drug concentration; Y=observed absorbance; X=drug concentration; ID50 =dose of drug that inhibits the growth of cells to one half that of the control cells.

[2] = UV Method For Determining Water Solubility; format: physicochemical; conditions: for solubility: water, room temperature, saturated solution standing over excess sample 15 to 20 hours, UV
Experimental: UV Method For Determining Water Solubility:
The ultraviolet spectrum is taken at room temperature of a saturated solution of the sample (saturated solution being defined as a water solution standing over excess sample for 15 to 20 hours with no heat being applied). A standard solution of the sample is obtained in water if possible. When the solubility in water is too low to do this (<1 mg/100 ml), a mg of the sample is dissolved in DMSO and diluted to 100 ml with water. Molar or gram extinction coefficients are calculated for the standard solutions and these values are used to determine the concentration of the saturated solution.

MX-1 human breast tumor = assay: In Vivo Human Tumor Xenograft Model, MX-1; parameters: species or system human (xenografted in nude mice); conditions: nude mice, i.v. once daily for nine consecutive days; NCI criteria
From the text: as §1
(§3) The mice used in these experiments were outbred Swiss mice or BALB/c mice bearing the nude (nu/nu) gene. On day 0 male and female mice weighing 22-30 g are inoculated with 0.2 mL of a 25% tumor mince. […] Tumor measurements and body weights are recorded once a week. […]
as §2, with “group.” for “group. [formula] Activity Criteria”

LX-1 human lung tumor = assay: In Vivo Human Tumor Xenograft Model, LX-1; parameters: species or system human (xenografted in nude mice); conditions: nude mice, i.v. once daily for nine consecutive days; NCI criteria
From the text: as §1, §3
as §2, with “group.” for “group. [formula] Activity Criteria”

Compound | activity against DLD-2 human colon tumor in vivo (tumor growth inhibition) (DLD-2 human colon tumor) | IC50 [1] | solubility [2] | activity against MX-1 human breast tumor in vivo (tumor growth inhibition) (MX-1 human breast tumor) | activity against LX-1 human lung tumor in vivo (tumor growth inhibition) (LX-1 human lung tumor) | water solubility (in words) ([2]; in words, relative to related compounds)
CN(CCNCCN1C(=O)c2cccc3cc([N+](=O)[O-])cc(c23)C1=O)CCN1C(=O)c2cccc3cc([N+](=O)[O-])cc(c23)C1=O [Example 2, 2-[2-[N-methyl-N-[2-[[2-(5-nitro-1,2-dioxo-1H-benz[de]isoquinoline-2(3H)-yl)ethyl]amino]ethyl]amino]ethyl]-5-nitro-1H-benz[de]isoquinoline-1,3(2H)-dione methanesulfonate (1:2)] | excellent to outstanding | < 0.01 µg/mL | 9600 µg/mL | – | – | –
O=C1c2cccc3cc([N+](=O)[O-])cc(c23)C(=O)N1CCNCCNCCN1C(=O)c2cccc3cc([N+](=O)[O-])cc(c23)C1=O [Example 3, 2,2'-[1,2-Ethanediylbis(imino-2,1-ethanediyl)]-bis[5-nitro-1H-benz[de]isoquinoline-1,3(2H)-dione]methanesulfonate (1:2)] | excellent to outstanding | 0.009 µg/mL (≈ 0.0151 µM) | 600 µg/mL (≈ 1010 µM) | excellent to outstanding | moderate (Tumor growth inhibition of 58-89% in the DLD-2 assay is considered moderate activity) | –
CN(CCN(C)CCN1C(=O)c2cccc3cc([N+](=O)[O-])cc(c23)C1=O)CCN1C(=O)c2cccc3cc([N+](=O)[O-])cc(c23)C1=O [Example 1, 2,2'-[1,2-Ethanediylbis(methylimino-2,1-ethanediyl)]-bis[5-nitro-1H-benz[de]isoquinoline-1,3(2H)-dione]methanesulfonate (1:2)] | excellent to outstanding | 0.0115 µg/mL (≈ 0.0184 µM) | > 26400 µg/mL | good to excellent (inhibition of ≥90% is considered good to excellent activity) | – | unexpected increased water solubility; also recorded: dramatic unexpected increase in water solubility
